According to PubChem BioAssay (NCI):
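Compound exposure: 48 hours, 5 concentrations, 96-well plates. Abbreviation: GI50, concentration required for 50% inhibition of growth. TGI: total growth inhibition.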

Columns and labels:
Test in all cases: NCI anticancer screen, dose series, 48 h
[1] = system: MDA-MB-435
[2] = system: M14 melanoma
[3] = system: PC-3 prostate
[4] = system: BT-549 breast
[5] = system: TK-10 renal
[6] = system: NCI/ADR-RES ovarian
[7] = system: 786-0 renal
[8] = system: COLO 205 colon
[9] = system: HCT-116 colon
[10] = system: NCI-H460 lung
[11] = system: OVCAR-4 ovarian
[12] = system: UACC-257 melanoma
[13] = system: CAKI-1 renal
[14] = system: HCC-2998 colon
[15] = system: A498 renal
[16] = system: SK-OV-3 ovarian
[17] = system: MOLT-4 leukemia
[18] = system: NCI-H226 lung
[19] = system: T-47D breast
[20] = system: SK-MEL-5 melanoma
[21] = system: NCI-H522 lung
[22] = system: NCI-H23 lung
[23] = system: LOX IMVI melanoma
[24] = system: HL-60(TB) leukemia
[25] = system: HS 578T breast
[26] = system: UACC-62 melanoma

With `Clc1ccc2c(N3CCN(c4ccnc(NC5CCCCC5)n4)CC3)ccnc2c1` the GI50 [1] was 1.91 µM, the TGI [1] was 3.88 µM and the GI50 [2] was 1.78 µM. The TGI [2] was 3.42 µM, the GI50 [3] was 1.56 µM and the TGI [3] was 3.3 µM. The GI50 [4] was 1.75 µM, the TGI [4] was 3.31 µM and the GI50 [5] was 2.29 µM. The TGI [5] was 5.16 µM, the GI50 [6] was 2.44 µM and the TGI [6] was 6.66 µM. The GI50 [7] was 1.69 µM, the TGI [7] was 3.14 µM and the GI50 [8] was 1.77 µM. For the same compound, the TGI [8] was 3.43 µM, the GI50 [9] was 1.36 µM and the TGI [9] was 2.8 µM. For the same compound, the GI50 [10] was 2.05 µM, the TGI [10] was 4.23 µM and the GI50 [11] was 2.56 µM. The TGI [11] was 11.2 µM, the GI50 [12] was 1.95 µM and the TGI [12] was 4.11 µM. It also gave a GI50 [13] of 2.21 µM, a TGI [13] of 6.87 µM and a GI50 [14] of 1.93 µM. The TGI [14] was 3.88 µM, the GI50 [15] was 1.79 µM and the TGI [15] was 8.22 µM. It also gave a GI50 [16] of 4.2 µM, a TGI [16] of 14 µM and a GI50 [17] of 2.13 µM. It also gave a TGI [17] of 5.47 µM, a GI50 [18] of 3.41 µM and a TGI [18] of 16.6 µM. It also gave a GI50 [19] of 2.11 µM, a TGI [19] of 5.5 µM and a GI50 [20] of 1.7 µM. For the same compound, the TGI [20] was 3.14 µM, the GI50 [21] was 1.97 µM and the TGI [21] was 3.84 µM. The GI50 [22] was 3.4 µM, the TGI [22] was 9.71 µM and the GI50 [23] was 1.92 µM. It also gave a TGI [23] of 3.46 µM, a GI50 [24] of 2.22 µM and a TGI [24] of 5.07 µM. The GI50 [25] was 2.41 µM, the TGI [25] was 8.08 µM and the GI50 [26] was 1.7 µM. For the same compound, the TGI [26] was 3.26 µM.
